Measurements reported in ChEMBL document CHEMBL4406812, “Synthesis of quinones with highlighted biological applications: A critical update on the strategies towards bioactive compounds with emphasis on lapachones” (Eur J Med Chem, 2019).
In brackets after ≈: the same amount, converted by molar mass.

Assays:
[1] = tested on: HepG2; experiment: Cytotoxicity against human HepG2 cells assessed as reduction in cell viability after 48 hrs by MTT assay; assay type: functional, cell-based; settings: HepG2, 48 h
[2] = tested on: L02; experiment: Cytotoxicity against human LO2 cells assessed as reduction in cell viability after 48 hrs by MTT assay; assay type: functional, cell-based; settings: L02, 48 h
[3] = tested on: LNCaP; experiment: Anticancer activity against human LNCAP cells after 72 to 102 hrs by MTT assay; assay type: functional, cell-based
[4] = tested on: KB; experiment: Cytotoxicity against human KB cells assessed as reduction in cell viability after 48 hrs by MTT assay; assay type: functional, cell-based
[5] = tested on: HeLa; experiment: Cytotoxicity against human HeLa cells assessed as reduction in cell viability after 48 hrs by MTT assay; assay type: functional, cell-based
[6] = tested on: Vero; experiment: Cytotoxicity against African green monkey Vero cells assessed as reduction in cell viability after 48 hrs by MTT assay; assay type: cell-based; settings: Chlorocebus sabaeus
[7] = tested on: Trypanosoma cruzi; experiment: Anti-parasitic activity against amastigote form of Trypanosoma cruzi after 24 hrs; assay type: functional, organism-based
[8] = tested on: HL-60; experiment: Anticancer activity against human HL60 cells; assay type: functional, cell-based
[9] = tested on: HCT-8; experiment: Anticancer activity against human HCT8 cells; assay type: functional, cell-based
[10] = tested on: SF-295; experiment: Anticancer activity against human SF295 cells; assay type: functional, cell-based
[11] = tested on: MDA-MB-435; experiment: Anticancer activity against human MDA-MB-435 cells; assay type: functional, cell-based
[12] = tested on: PBMC; experiment: Cytotoxicity against human PBMC; assay type: cell-based
[13] = tested on: Mycobacterium tuberculosis; experiment: Antimycobacterial activity against Mycobacterium tuberculosis H37Rv; assay type: functional
[14] = tested on: Trypanosoma cruzi; experiment: Anti-parasitic activity against Trypanosoma cruzi; assay type: functional, organism-based
[15] = tested on: HL-60; experiment: Cytotoxicity against human HL60 cells assessed as reduction in cell viability after 48 hrs; assay type: functional, cell-based; settings: HL-60, 48 h
[16] = tested on: HCT-116; experiment: Cytotoxicity against human HCT116 cells assessed as reduction in cell viability after 48 hrs; assay type: functional, cell-based; settings: HCT-116, 48 h
[17] = tested on: PC-3; experiment: Cytotoxicity against human PC3 cells assessed as reduction in cell viability after 48 hrs; assay type: functional, cell-based; settings: PC-3, 48 h
[18] = tested on: SF-295; experiment: Cytotoxicity against human SF295 cells assessed as reduction in cell viability after 48 hrs; assay type: functional, cell-based; settings: SF-295, 48 h
[19] = tested on: MDA-MB-435; experiment: Cytotoxicity against human MDA-MB-435 cells assessed as reduction in cell viability after 48 hrs; assay type: functional, cell-based; settings: MDA-MB-435, 48 h
[20] = tested on: OVCAR-8; experiment: Cytotoxicity against human OVCAR8 cells assessed as reduction in cell viability after 48 hrs; assay type: functional, cell-based; settings: OVCAR-8, 48 h
[21] = tested on: PC-3; experiment: Anticancer activity against human PC3 cells; assay type: functional, cell-based
[22] = tested on: DU-145; experiment: Anticancer activity against human DU145 cells; assay type: functional, cell-based
[23] = tested on: K562; experiment: Anticancer activity against human K562 cells; assay type: functional, cell-based
[24] = tested on: MOLT-4; experiment: Anticancer activity against human MOLT4 cells; assay type: functional, cell-based
[25] = tested on: Jurkat; experiment: Anticancer activity against human Jurkat cells; assay type: functional, cell-based
[26] = tested on: HCT-116; experiment: Anticancer activity against human HCT116 cells; assay type: functional, cell-based
[27] = tested on: SW-620; experiment: Anticancer activity against human SW620 cells; assay type: functional, cell-based
[28] = tested on: MX1; experiment: Anticancer activity against human MX1 cells; assay type: functional, cell-based
[29] = tested on: Hs-578T; experiment: Anticancer activity against human Hs578T cells; assay type: functional, cell-based
[30] = tested on: MDA-MB-231; experiment: Anticancer activity against human MDA-MB-231 cells; assay type: functional, cell-based
[31] = tested on: SF-268; experiment: Anticancer activity against human SF268 cells; assay type: functional, cell-based
[32] = tested on: UACC-62; experiment: Anticancer activity against human UACC62 cells; assay type: functional, cell-based
[33] = tested on: NCI-H460; experiment: Anticancer activity against human NCI-H460 cells; assay type: functional, cell-based
[34] = tested on: HL-60; experiment: Cytotoxicity against human HL60 cells assessed as reduction in cell viability after 22 hrs by MTS assay; assay type: functional, cell-based; settings: HL-60, 22 h
[35] = tested on: PC-3; experiment: Anticancer activity against human PC3 cells after 72 to 102 hrs by MTT assay; assay type: functional, cell-based
[36] = tested on: Trypanosoma cruzi; experiment: Anti-parasitic activity against trypomastigotes form of Trypanosoma cruzi after 24 hrs; assay type: functional, organism-based
[37] = tested on: HL-60; experiment: Anticancer activity against human HL60 cells by MTT assay; assay type: functional, cell-based
[38] = tested on: HCT-116; experiment: Anticancer activity against human HCT116 cells by MTT assay; assay type: functional, cell-based
[39] = tested on: SF-295; experiment: Anticancer activity against human SF295 cells by MTT assay; assay type: functional, cell-based
[40] = tested on: OVCAR-8; experiment: Anticancer activity against human OVCAR8 cells by MTT assay; assay type: functional, cell-based
[41] = tested on: Trypanosoma cruzi; experiment: Trypanocidal activity against Trypanosoma cruzi Y strain bloodstream trypomastigotes isolated from infected Swiss mouse infected with monkey LLC-MK2 cells after 5 days by fluorescence spectrophotometric analysis; assay type: functional, organism-based; settings: LLC-MK2, 120 h
[42] = Selectivity index, ratio of CC50 for monkey LLC-MK2 cells to IC50 for Trypanosoma cruzi Y strain bloodstream trypomastigotes; assay type: toxicity; settings: read-out: Ratio IC50

O=C1C(=O)c2ccccc2C2=C1C1(C(=O)Nc3c(Br)cccc31)N1NN=NC1=N2 (centres undefined)
IC50 [1]: 2900 to 36300 nM
IC50 [2]: 2900 to 36300 nM

O=C1C(=O)c2ccccc2C2=C1CCCO2
IC50 [3]: 2760 nM
IC50 [4]: 3200 nM
IC50 [5]: 900 nM
IC50 [1]: 900 nM
IC50 [6]: 1000 nM

CC1(C)Oc2c(c3nc4c5cccnc5c5ncccc5c4nc3c3ccccc23)CC1I (centres undefined)
IC50 [7]: 4900 nM

CC1(C)CC(Nc2ccc(Cl)cc2)C2=C(O1)C(=O)c1ccccc1C2=O (centres undefined)
IC50 [8]: 70 to 370 nM
IC50 [9]: 70 to 370 nM
IC50 [10]: 70 to 370 nM
IC50 [11]: 70 to 370 nM
IC50 [12]: 70 to 370 nM

CC1(C)CCC2=C(O1)c1ccccc1C(=O)C2=O [LAPACHONE]
MIC [13]: 100 µg/mL (≈ 413 µM)

O=C1C(Br)=C(Br)C(=O)c2c(I)cccc21
IC50 [14]: 1400 nM

O=C1C(=O)c2ccccc2C2=C1C1(C(=O)Nc3cc(Br)ccc31)N1NN=NC1=N2 (centres undefined)
IC50 [1]: 2900 to 36300 nM
IC50 [2]: 2900 to 36300 nM

CC1(C)OC2=C(C(=O)C(=O)c3ccccc32)C1Nc1cccc(-c2cn(C[Se]c3ccccc3)nn2)c1 (centres undefined)
IC50 [15]: < 100 nM
IC50 [16]: < 100 nM
IC50 [17]: < 100 nM
IC50 [18]: < 100 nM
IC50 [19]: < 100 nM
IC50 [20]: < 100 nM

CN1C(=O)C2(C3=C(N=C4N=NNN42)c2ccccc2C(=O)C3=O)c2cccc(F)c21 (centres undefined)
IC50 [1]: 2900 to 36300 nM
IC50 [2]: 2900 to 36300 nM

CC1(C)Cc2c(c3ccccc3c3nc4c5cccnc5c5ncccc5c4nc23)O1
IC50 [7]: 23000 nM

O=C1C(=O)c2ccccc2C2=C1C1(C(=O)Nc3ccc(OC(F)(F)F)cc31)N1NN=NC1=N2 (centres undefined)
IC50 [1]: 2900 to 36300 nM
IC50 [2]: 2900 to 36300 nM

Cc1ccc2c(c1)C1(C(=O)N2)C2=C(N=C3N=NNN31)c1ccccc1C(=O)C2=O (centres undefined)
IC50 [1]: 2900 to 36300 nM
IC50 [2]: 2900 to 36300 nM

Cc1cc(C)n2c1C(c1ccc(OCc3cn(C4C5=C(OC4(C)C)c4ccccc4C(=O)C5=O)nn3)cc1)=C1C=CC=[N+]1[B-]2(F)F (centres undefined)
IC50 [21]: 340 to 2170 nM
IC50 [22]: 340 to 2170 nM
IC50 [8]: 340 to 2170 nM
IC50 [23]: 340 to 2170 nM
IC50 [24]: 340 to 2170 nM
IC50 [25]: 340 to 2170 nM
IC50 [26]: 340 to 2170 nM
IC50 [9]: 340 to 2170 nM
IC50 [27]: 340 to 2170 nM
IC50 [28]: 340 to 2170 nM
IC50 [29]: 340 to 2170 nM
IC50 [30]: 340 to 2170 nM
IC50 [10]: 340 to 2170 nM
IC50 [31]: 340 to 2170 nM
IC50 [11]: 340 to 2170 nM
IC50 [32]: 340 to 2170 nM
IC50 [33]: 340 to 2170 nM
IC50 [12]: 3260 nM

O=C1C(=O)c2ccccc2C2=C1C1(C(=O)N(c3ccccc3)c3ccccc31)N1NN=NC1=N2 (centres undefined)
IC50 [1]: 2900 to 36300 nM
IC50 [2]: 2900 to 36300 nM

O=C1C2=C(S[C@@H]3OC[C@@H](O)[C@H](O)[C@H]3O2)C(=O)c2ccccc21
IC50 [34]: 1000 nM

COc1ccc2c(c1)NC(=O)C21C2=C(N=C3N=NNN31)c1ccccc1C(=O)C2=O (centres undefined)
IC50 [1]: 2900 to 36300 nM
IC50 [2]: 2900 to 36300 nM

O=C1c2ccccc2C(=O)c2oc(-c3cccc(Cl)c3)nc21
IC50 [3]: 30 nM
IC50 [35]: 80 nM

O=C1C=CC(=O)c2c(SCc3ccccc3)cccc21
IC50 [36]: 14300 nM

CC1(C)CCc2c(c3ccccc3c3nc4c5cccnc5c5ncccc5c4nc23)O1
IC50 [7]: 4900 nM

COc1ccc(/N=C2\C(=O)C3=C(OC(C)(C)CC3)c3ccccc32)cc1
IC50 [11]: 10 nM

COc1ccc(Sc2cccc3c2C(=O)C=CC3=O)cc1
IC50 [36]: 7600 nM

O=C1C(=O)c2ccccc2C2=C1C1(C(=O)Nc3ccc(F)cc31)N1NN=NC1=N2 (centres undefined)
IC50 [1]: 2900 to 36300 nM
IC50 [2]: 2900 to 36300 nM

CC1(C)O[C@H]2O[C@H](COC3C4=C(OC3(C)C)c3ccccc3C(=O)C4=O)[C@@H](OCc3ccccc3)[C@H]2O1 (some centres undefined)
IC50 [37]: 160 nM
IC50 [38]: 510 nM
IC50 [39]: 340 nM
IC50 [40]: 890 nM

CCCCCCCCCCC1CC2=C(O1)c1ccccc1C(=O)C2=O (centres undefined)
IC50 [41]: 46800 nM
selectivity ratio [42]: 36.3

O=C1C(=O)c2ccccc2C2=C1C1(C(=O)Nc3c(Cl)cccc31)N1NN=NC1=N2 (centres undefined)
IC50 [1]: 2900 to 36300 nM
IC50 [2]: 2900 to 36300 nM
